Patent US6043058A, “Preparation of cyclic depsipeptide compounds and a novel cyclic depsipeptide” (Maiji Seika Kaisha Ltd., priority 1996, dated 2000)

Key:
[1] = Classification by basicity, acidity or neutrality; assay type: physicochemical
Source text: (§1) Physico-chemical properties of PF […] substance, PF […] substance and PF […] substance thus obtained are given below: […]

[2] = Solubilities (physico-chemical properties); assay type: physicochemical
Source text: as §1

[3] = tested on: fowl roundworms; assay: Anthelmintic activity; assay type: in vivo; settings: parasite not named at this place; stated in words only

With `CC(C)C[C@H]1C(=O)O[C@H](C)C(=O)N(C)[C@@H](CC(C)C)C(=O)O[C@H](C)C(=O)N(C)[C@@H](CC(C)C)C(=O)O[C@H](C)C(=O)N(C)[C@@H](CC(C)C)C(=O)O[C@H](C)C(=O)N1C` [PF 1022F substance] the “Classification by basicity, acidity or neutrality” value [1] was “Neutral substance”, the “Solubility in organic solvents” value ([2]; chloroform, acetone, ethyl acetate, methanol and dimethylsulfoxide) was “Soluble” and the Solubility in n-hexane ([2]; solvent: n-hexane) was “Insoluble”. The Solubility in water ([2]; solvent: water) was “Insoluble” and the “Anthelmintic activities (general statement)” value [3] was “having anthelmintic activities”.
